Article PMC5654082 (Malaria Journal, 2017)
Structures can show the parent of a compound that is named as a salt.

Experiments:
[1] = target: T1, human OCT1 (Homo sapiens, UniProt O15245); test: OCT1-mediated cellular import in transduced HEK293 cells (LC-MS/MS); assay type: cell-based
T1 construct: host or cells: HEK293, baculovirus transduction (CMV promoter), transient
T1 sequence (O15245 1-554): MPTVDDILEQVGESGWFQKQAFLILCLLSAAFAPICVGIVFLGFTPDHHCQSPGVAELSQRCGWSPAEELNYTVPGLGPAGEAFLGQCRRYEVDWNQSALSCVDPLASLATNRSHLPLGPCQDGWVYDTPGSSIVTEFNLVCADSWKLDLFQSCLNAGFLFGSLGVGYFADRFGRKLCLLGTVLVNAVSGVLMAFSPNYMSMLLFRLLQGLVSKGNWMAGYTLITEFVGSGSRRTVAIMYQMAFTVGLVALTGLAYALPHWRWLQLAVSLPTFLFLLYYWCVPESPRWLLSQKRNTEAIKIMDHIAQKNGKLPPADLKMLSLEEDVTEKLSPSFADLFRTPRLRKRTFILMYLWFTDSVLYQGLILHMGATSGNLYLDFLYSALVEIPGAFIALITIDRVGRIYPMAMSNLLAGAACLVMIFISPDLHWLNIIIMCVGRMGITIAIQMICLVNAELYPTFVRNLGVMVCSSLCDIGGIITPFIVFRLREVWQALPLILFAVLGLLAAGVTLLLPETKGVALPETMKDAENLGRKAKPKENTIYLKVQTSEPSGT
Procedure: HEK293 cells were modified to transiently express (a combination of) human OCT1, OCT2, MATE1, MATE2-K, or eYFP. Briefly, cDNA of the respective genes was cloned downstream of a CMV promoter into a baculovirus, of which passage three was used to transduce HEK293 cells. These cells were seeded in poly-D-lysine coated 24- or 96-wells plates and grown in a 37 °C incubator at 5% CO2. Growth was initiated at ~ 25% confluency using 375 or 125 μL cell and complete medium (DMEM + GlutaMAX™-I supplemented with 10% fetal bovine serum) suspension per well, respectively. After 24 h, cells were transduced with 30 µL virus (10 µL virus + 20 µL complete medium in case of 96-wells plates) or 2 × 15 µL virus for cells that required simultaneous expression of two transporters. Finally, 195 µL sodium butyrate (45 µL for 96-wells plates) was added to a final concentration of 2 mM to enhance protein expression.
HEK293 cells were seeded in 24-wells poly-D-lysine coated plates and transduced the subsequent day with OCT1 or OCT2 as described above. Three days following transduction, OCT1- or OCT2-mediated uptake of ten anti-malarials (AMO, ART, ATO, CQ, DHA, LUM, MQ, PQ, PG, and QN) was performed. NMQ served as a positive substrate for both OCT1 and OCT2 import. In short, cells were washed with 400 µL 37 °C HBSS-HEPES buffer followed by adding 150 µL HBSS buffer with 10 µM anti-malarial or NMQ to each well. After incubation for 15 min at 37 °C, import was stopped by washing with 400 µL ice-cold HBSS-HEPES buffer supplemented with 0.5% BSA. Following a second wash with 400 µL ice-cold HBSS-HEPES buffer, cells were lysed with 200 µL 50% (v/v) MeOH and 0.1% (v/v) formic acid (HCOOH) in water and samples were sent for quantification by mass spectrometry analysis (see “LC–MS/MS quantification of anti-malarials” section). […]
The affinity (KM) and maximum transport rate (Vmax) for OCT1 and OCT2 of PG were determined by analysing concentration-dependent uptake data from three independent experiments.
(§1) Import and export of PG and cycloguanil (CG) was assessed by single and double transduced HEK293 cells. […] Following the same procedure as for the cellular import assay described above, the import of 100 µM PG and CG was measured after 5 min incubation and data was plotted as mean pmol/mg/min ± SEM. […] Significant reduction in uptake (i.e. export by MATEs) was determined using ln transformation and a one-way repeated measures ANOVA with Dunnet’s post test.
Anti-malarial concentration in the cell lysates was quantified using an LC–MS/MS system consisting of a UPLC, a binary solvent manager, a vacuum degasser and an autosampler, coupled to a Xevo TQ-S micro triple quadrupole mass spectrometer. […]

[2] = target: MATE2-K (Homo sapiens, UniProt Q86VL8); test: MATE2-K-mediated uptake in transduced HEK293 cells; assay type: cell-based; parameters: host or cells: HEK293, baculovirus transduction (CMV promoter), transient; conditions: 100 µM, 5 min
Sequence of MATE2-K (Q86VL8 1-566 isoform Q86VL8-3): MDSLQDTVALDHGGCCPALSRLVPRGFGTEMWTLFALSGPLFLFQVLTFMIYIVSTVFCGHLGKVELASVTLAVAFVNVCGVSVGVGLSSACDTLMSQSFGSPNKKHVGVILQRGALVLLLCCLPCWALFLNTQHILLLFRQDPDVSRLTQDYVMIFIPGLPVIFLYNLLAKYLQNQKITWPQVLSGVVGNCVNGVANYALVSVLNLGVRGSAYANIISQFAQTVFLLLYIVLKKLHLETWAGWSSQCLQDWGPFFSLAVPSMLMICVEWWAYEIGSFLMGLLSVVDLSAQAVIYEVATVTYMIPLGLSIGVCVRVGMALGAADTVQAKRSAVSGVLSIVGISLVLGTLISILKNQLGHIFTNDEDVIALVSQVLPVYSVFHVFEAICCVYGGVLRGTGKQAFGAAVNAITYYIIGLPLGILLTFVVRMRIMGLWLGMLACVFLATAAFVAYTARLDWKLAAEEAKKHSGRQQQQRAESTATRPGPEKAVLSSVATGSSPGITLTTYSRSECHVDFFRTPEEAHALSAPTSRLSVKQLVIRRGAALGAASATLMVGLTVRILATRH
Procedure: HEK293 cells were modified to transiently express (a combination of) human OCT1, OCT2, MATE1, MATE2-K, or eYFP. Briefly, cDNA of the respective genes was cloned downstream of a CMV promoter into a baculovirus, of which passage three was used to transduce HEK293 cells. These cells were seeded in poly-D-lysine coated 24- or 96-wells plates and grown in a 37 °C incubator at 5% CO2. Growth was initiated at ~ 25% confluency using 375 or 125 μL cell and complete medium (DMEM + GlutaMAX™-I supplemented with 10% fetal bovine serum) suspension per well, respectively. […]
as §1
Anti-malarial concentration in the cell lysates was quantified using an LC–MS/MS system consisting of a UPLC, a binary solvent manager, a vacuum degasser and an autosampler, coupled to a Xevo TQ-S micro triple quadrupole mass spectrometer. […] The peak area of the most abundant product ion was used for quantification.

Row | Uptake by OCT1 ([1]; 100 µM, 5 min) | Compound | Uptake by MATE2-K [2] | Uptake by OCT1, percentage of mock-transduced control ([1]; 10 µM, 15 min, 37 °C) | Uptake, percentage of eYFP control cells ([1]; cells co-transduced with eYFP and OCT1, 1 µM, 1 min, pH 7.4)
1 | 139 ± 9 pmol/mg/min | CC1(C)N=C(N)N=C(N)N1c1ccc(Cl)cc1 [Cycloguanil] | 56 ± 15 pmol/mg/min |  | 
2 |  | [H]/N=C(\N/C(=N/[H])Nc1ccc(Cl)cc1)NC(C)C [Proguanil, proguanil hydrochloride] | 360 ± 90 pmol/mg/min | 301 ± 25% | 850 ± 60%
